A word on the melting point: it is the temperature, or range, at which the solid turns liquid.

In turn, `COc1ccc2cc(Br)ccc2n1` yielded a melting point of 93 to 96 °C.
`COc1ccc(-c2nccc3c(C)cccc23)cc1` displayed a melting point of 60.4 to 60.8 °C.
To `CC(C)(C)OC(=O)N1CCN(Cc2ccccc2)C[C@H]1C(c1ccccc1)c1ccccc1` belongs 108 to 109 °C; to `CCCCCCCCCCNC(=O)c1cc(C(=O)NCCCCCCCCCC)cc(N(CCCC(=O)OCC)CCCC(=O)OCC)c1`, 75 to 77 °C; to `CS(=O)(=O)c1ccc(-c2nc(-c3ccc(F)cc3)c(-c3ccncc3)[nH]2)cc1`, 148 to 149 °C.
`CN1c2ccccc2C(C)(C)C12CNc1c(cc(N3CCCCC3)c3oc4ccccc4c13)O2` (stereo unspecified) registered a melting point of 214 to 216 °C.
To `Oc1ccc(-c2nnn(-c3ccc(C(F)(F)F)cc3F)c2Cl)c(Cl)c1` belongs 150 to 152 °C; to `CCOCCN(CC)c1ccc(-c2ccc3c(c2)C=C(C(=O)Nc2ccc(CN(C)C4CCOCC4)cc2)CCS3(=O)=O)cc1`, 194 to 197 °C.
To `Cc1noc(NS(=O)(=O)c2ccccc2-c2ccc(-c3ncco3)cc2CN(C)C(=O)c2cc3ccccc3[nH]2)c1C` belongs 135 to 145 °C.
To `CCN1C(=O)C(=S2CN(CC)c3ccccc32)SC1=S` (stereo unspecified) belongs 246 to 248 °C.
Turning to `C=C1C[C@@H](O)[C@H](/C=C/[C@@H](O)CCCCC)[C@H]1Cc1cccc(OCc2ccccc2)c1`, the melting point was 58 °C.
Consider `COc1cc2c(cc1OC)N(C)C(=O)CN=C2c1cccc(C)c1`, for which the melting point fell in the range of 119 to 121 °C.
For `CCOC(=O)/C(=C\c1ccc([N+](=O)[O-])cc1)P(=O)(OCC)OCC` the value was 60 to 61 °C; for `CCOc1c(C(=O)OCC(C)(C)C(=O)C(C)(C)C)oc2ccc(OC)cc12`, 105 to 106 °C; for `CCN(CC)C(=O)n1cnc(S(=O)(=O)Cl)n1`, 44 to 47 °C.
For `CCCCS(=O)(=O)c1cn(C)c2ccccc2c1=O` the value was 107 to 108 °C; for `CC(C)=Nc1c2c(nc3ccccc13)CCCC2`, 127 to 130 °C; for `CN(C(N)=O)c1nc(Cl)nc(Cl)n1`, 172 to 174 °C.
`CC(=NNC(=O)c1cccc(C)c1)c1cc(Cl)cc(Cl)c1O`: the melting point was in the range of 221 to 223 °C.
To `CCC(=O)c1onc2ccccc12` belongs 51 to 53 °C; to `Clc1ccc2c(c1Cl)C=NCC2`, 196 to 200 °C; to `C#CCn1c(-c2ccc(Cl)nc2Cl)nc(OS(=O)(=O)C(F)(F)F)c(OC)c1=O`, 133 to 135 °C.
Turning to `COc1ccc(CNC(=O)c2cc3c(=O)n(Cc4ccc([N+](=O)[O-])nc4)c(=O)n(C)c3s2)cc1`, the melting point was 238 to 241 °C.
For `O=C(NC(CCl)c1ccc(-c2ccc(SC(F)F)cc2)cc1)c1c(F)cccc1F` (stereo unspecified), the melting point lay within 146 to 147 °C.
For `O=C(NCCNCCNC(=O)OCc1ccccc1)OCc1ccccc1` the value was 73 to 75 °C; for `O=C(O)CCSC1c2ccccc2COc2ccc(OCc3ccc4cc(F)ccc4n3)cc21` (stereo unspecified), 167 to 171 °C; for `O=C(NCCCCn1ccnc1)Nc1ccccc1Cl`, 87 to 88 °C.
For `O=c1nc(-c2cccc(CS(=O)Cc3ccccc3)n2)sc2ccccc12` (stereo unspecified) the value was 187 to 189 °C.
For `Nc1ccc(N2C(=O)c3ccccc3C2=O)cc1S(F)(F)(F)(F)F` the value was 176 to 178 °C; for `Cc1noc(-c2cn(-c3cccc(Br)c3)cn2)n1`, 200 to 202 °C.
On to `Cc1ccc(O)c(CNc2nc(NC[C@@H](C)O)nc3c2ncn3C(C)C)c1`, for which the melting point fell in the range of 160 to 161 °C.
To `COc1ccc2cc(-c3nccn3C)ccc2n1` belongs 116 to 118 °C; to `O=C(c1cccc(O)c1)C(O)c1cccc(O)c1` (stereo unspecified), 159 to 162 °C; to `COc1cc(OCc2cccnc2)ccc1/C=C/c1cc(/C=C/c2cc3ccccc3[nH]2)n[nH]1`, 126 to 138 °C.
On to `O=Cc1c(Cl)cc(O)c(O)c1Cl`, for which the melting point was 213 to 215 °C.
To `ON=Cc1ccc(OCc2coc(-c3ccc(C(F)(F)F)cc3)n2)cc1` belongs 155 to 160 °C; to `OC1CCN(CCCOc2ccc3cc(-c4n[nH]c5cc(-c6ccccc6)sc45)[nH]c3c2)CC1`, 239 to 242 °C.
For `Cc1ccc(S(=O)(=O)N2CC[C@@H](O)C2)cc1`, the melting point was in the range of 108 to 112 °C.
For `CCCC=Cc1c(C(C)C)nc(C(C)C)c(CO)c1-c1ccc(Cl)c(Cl)c1` the value was 46 to 48 °C; for `O=C(CO)Nc1cc(-c2ccncc2)c[nH]c1=O`, 271 to 274 °C; for `CS(=O)(=O)c1ccc(-c2cnn(CC(F)(F)F)c(=O)c2NCC2CC2)cc1`, 145 to 146 °C.
For `Cc1c(C(=O)Nc2ccc(OCCN3CCOCC3)c(C#N)c2)cnn1-c1ccc(Cl)cc1` the value was 187 to 189 °C; for `O=[N+]([O-])c1ccc(OCCc2c[nH]cn2)cc1`, 197 to 200 °C.
To `C/C(=N\O)c1cccc(NC(=O)NCC(=O)N(CC(=O)N2CCCC(C)(C)C2)c2ccccc2)c1` belongs 248 °C; to `CN(C)C=CC(=O)c1cccc(Cl)c1`, 68 to 70 °C.
Consider `Cc1c(S(=O)(=O)C(F)(F)F)cnn1-c1c(Cl)cc(C(F)(F)F)cc1Cl`, for which the melting point was 83 to 85 °C.
For `CC(=O)C=Cc1ccc2c(c1)Cc1ccccc1-2` the value was 146 to 148 °C.
For `CCC1CCC(=O)C=C1c1ccc(OCC(=O)O)c(Cl)c1Cl` (stereo unspecified) the value was 164 to 165 °C; for `CCOc1cc2oc(=O)c3c(c2cc1OCC)CCN(CC(C)=O)C3`, 146 to 148 °C; for `COc1cccc(C2(CC(=O)O)C(=O)Nc3ccc(Cl)cc32)c1OC` (stereo unspecified), 235 °C.
To `COc1ccc2c(c1)C(n1cc[nH]c1=S)CCC2` (stereo unspecified) belongs 142 to 143 °C; to `CONC(=O)c1nc(-c2ccc(Cl)c(OC)c2F)cc(N)c1Cl`, 215 to 217 °C; to `O=C(NCc1ccc([N+](=O)[O-])cc1)OCc1ccccc1`, 92 to 93 °C.
`Oc1ccc(-c2ccc(O)c(Br)c2)cc1Br` had a melting point of 118 to 121 °C.
Turning to `C[Si](C)(C)Oc1nc(-c2ccccc2)nc2c1CC(S(=O)(=O)c1ccccc1)CC2` (stereo unspecified), the melting point was greater than 250 °C.
Turning to `COC(=O)C(C(=O)OC)N(C(N)=O)c1ccc(C=NO)cc1`, the melting point is 162 °C.
For `ClC1=NCc2ccccc2SC1` the value was 164 to 168 °C; for `CC(=O)Oc1ccc2scc(C(=O)O)c2c1`, 239 to 240 °C; for `COc1cc(N)c(Cl)cc1C(=O)NCCC1CN(Cc2ccc(C#N)cc2)CCO1` (stereo unspecified), 180 to 182 °C.
To `CC(C)c1ccc2[nH]c3c(c2c1)Cc1ccccc1-3` belongs 193 °C.
To `COc1cc(OCc2ccccn2)ccc1/C=C/c1cc(/C=C/c2cccc3cc[nH]c23)n[nH]1` belongs 99 to 110 °C; to `CCC(=O)C(=Cc1cc(O)c(O)c([N+](=O)[O-])c1)C(=O)CC`, 133 to 135 °C.
Turning to `COC(=O)Cc1nc2nc(C)cc(Cl)n2n1`, the melting point fell in the range of 111 to 112 °C.
For `CC(=O)NCC1=C(n2ccccc2=O)c2cc(C(F)(F)F)ccc2OC1(C)C` the value was 174 °C; for `Cc1nc2cc(NCC(=O)C3(C)CC3)ccc2s1`, 116 to 120 °C; for `COCCNC(=O)c1cccc(-c2ccc(F)c3cc(Cc4cccc(C(F)(F)F)c4)sc23)c1`, 123 to 124 °C.
For `N#CC1=CC(CF)(CF)Oc2ccc(Br)cc21` the value was 105 to 107 °C; for `O=C(Nc1ccc(C(=O)N2CCc3cn[nH]c3-c3sccc32)cc1)c1ccc(F)cc1Cl`, 258 to 266 °C; for `N#CC1(c2ccc(F)cc2)CCC(N2CCN(c3cccnn3)CC2)CC1` (stereo unspecified), 189 °C.
For `CC(=O)NC1=NN(c2ccccc2)CC1` the value was 190 to 191 °C.
On to `CC1Sc2nc(SCc3ccccc3)nn2C1=O` (stereo unspecified), for which the melting point lay within 85 to 87 °C.
To `Cc1ccc([N+](=O)[O-])c(C#N)c1` belongs 90 to 91 °C; to `COc1ccc(Oc2ccc(C(=O)N(C(C)C)C3CCCCC3)cc2)cc1`, 81.7 °C.
To `COC(CCCNC(=O)CCCCCCCCC(=O)NCCCC(OC)OC)OC` belongs 83.5 to 85.5 °C; to `COc1ccc(C2CC(C(C)(C)C)=NN2c2ccc(C(=O)O)cc2)cc1` (stereo unspecified), 209 °C.
For `CCCC(=O)c1cnc2c(N)cccc2c1Nc1ccccc1C` the value was 108 to 110 °C; for `CCc1nc(/C=C/c2cn(-c3ccccc3)nc2OCc2ccc(OCc3nc(-c4cccc(C(=O)O)c4)oc3C)c(OC)c2)cs1`, 190 to 191 °C.
In turn, `CC(C)(NC(=O)c1nnc2ccc(OCCCN3CCC(OC(c4ccccc4)c4ccccc4)CC3)nn12)C(=O)O` registered a melting point of 163 to 165 °C.
To `COc1cc2c(cc1O)CCN(C(=O)c1cc(OC)c(OC)c(OC)c1)C2=O` belongs 175 to 176 °C; to `COc1cc(C(=CN(C)C)C(C)=O)ccc1OCC(O)CN1CCN(c2ccccc2C)CC1` (stereo unspecified), 95 °C; to `CN(CC(=O)O)C(=O)CCS`, 157 to 158 °C.
For `Cn1cc(C(=O)NCc2ccc(Cl)cc2)c(=O)c2cc(CN3CCOCC3)cc(C#CCCO)c21` the value was 168 to 170 °C.
On to `CCOC(=O)C1CCc2c([nH]c3ccc(N(C)C)cc23)C1` (stereo unspecified), for which the melting point lay within 100 to 101 °C.
To `CC(C)(CI)c1cc(Cl)nnc1Cl` belongs 104 to 106 °C; to `CC1=C(S(C)(=O)=O)C(c2ccc(Cl)c(Cl)c2)C2=C(CCC2=O)N1` (stereo unspecified), 218 to 220 °C; to `CCc1ccc(N)c(CS(=O)c2nc3ccccc3[nH]2)c1` (stereo unspecified), 155 to 156 °C.
To `COc1nc(NC(=O)NS(=O)(=O)c2ccccc2S(=O)(=O)N2CCC2)nc(OC)n1` belongs 175 to 177 °C.
To `CCP1(=O)c2ccccc2CN1c1ccccc1` (stereo unspecified) belongs 116 to 120 °C.
`CCOc1ccc(-n2nnnc2C(F)(F)F)cc1C=O` returned a melting point of 87.9 to 88.4 °C.
`Cc1nc2c([nH]c(=O)c3ccccc32)s1`: the melting point was 310 to 320 °C.
`Cc1cccnc1-n1c(C)nc2ccccc2c1=O` displayed a melting point of 135 to 137 °C.

The record behind these values is a melting point compilation (Tetko et al.; mined from patent text by program, amines drawn as free bases though some values may be those of a salt).
